The EC50 is the midpoint of the concentration-response curve. High values mean weaker potency, low ones greater potency.

For 13 compounds, Activity and EC50 results are on record in ChEMBL document CHEMBL5385952, “Facile Synthesis and First Antifungal Exploration of Tetracyclic Meroterpenoids: (+)-Aureol, (-)-Pelorol, and Its Analogs” (J Nat Prod, 2024).

In the first assay the test system is Botrytis cinerea. Nature of the assay: Antifungal activity against Botrytis cinerea at 150 uM. The class given is functional.
In turn, `Cc1cc(O)cc2c1[C@]1(C)CC[C@H]3C(C)(C)CCC[C@]3(C)[C@H]1C2` had an Activity of 7%.
For `CC1(C)CCC[C@]2(C)[C@H]3Cc4cc(O)cc(O)c4[C@]3(C)CC[C@@H]12`, the Activity was 39%.
In turn, `CC1(C)CCC[C@]2(C)[C@H]3Cc4cc(O)ccc4[C@]3(C)CC[C@@H]12` displayed an Activity of 34%.
On the same count and under the same terms, in the case of `CC1(C)CCC[C@]2(C)[C@H]3Cc4c(ccc(O)c4O)[C@]3(C)CC[C@@H]12` it was 43%.
Regarding `CC1(C)CCC[C@]2(C)[C@H]3Cc4c(O)c(O)cc(C(=O)O)c4[C@]3(C)CC[C@@H]12`, the Activity is on record as 56%.
Take `CCc1cc(O)c(O)c2c1[C@]1(C)CC[C@H]3C(C)(C)CCC[C@]3(C)[C@H]1C2`: the Activity was found to be 37%.
The compound `Cc1cc2c(cc1O)C[C@@H]1[C@@]3(C)CCCC(C)(C)[C@@H]3CC[C@@]21C` yielded an Activity of 24%.
The same measure, in the same setting: the result for `CC1(C)CCC[C@]2(C)[C@H]3Cc4c(O)c(O)cc(C=O)c4[C@]3(C)CC[C@@H]12` reads 33%; that for `Cc1cc(O)c(O)c2c1[C@]1(C)CC[C@H]3C(C)(C)CCC[C@]3(C)[C@H]1C2`, 70%.
Compound `CC1(C)CCC[C@]2(C)[C@H]3Cc4c(cc(C=O)c(O)c4O)[C@]3(C)CC[C@@H]12` registered an Activity of 15%.
With `COC(=O)c1cc(O)c(O)c2c1[C@]1(C)CC[C@H]3C(C)(C)CCC[C@]3(C)[C@H]1C2` [PELOROL], the Activity is recorded as 52%.

The test system of a further assay is Rhizoctonia solani. Nature of the assay: Antifungal activity against Rhizoctonia solani.
As for `CC1(C)CCC[C@]2(C)[C@H]3Cc4cc(O)ccc4O[C@]3(C)CC[C@@H]12`, the EC50 came to 16 µM.
Regarding `CC1(C)CCC[C@]2(C)[C@H]3Cc4cc(O)ccc4[C@]3(C)CC[C@@H]12`, the concentration giving a half-maximal response (EC50) was found to be 34 µM.
`CC1(C)CCC[C@]2(C)[C@H]3Cc4c(O)c(O)cc(C(=O)O)c4[C@]3(C)CC[C@@H]12`: the EC50 was 18 µM.
`C[C@H]1CC[C@H]2C(C)(C)CCC[C@]23Oc2ccc(O)cc2C[C@]13C` [AUREOL] displayed a concentration giving a half-maximal response (EC50) of 6.9 µM.
Consider `COC(=O)c1cc(O)c(O)c2c1[C@]1(C)CC[C@H]3C(C)(C)CCC[C@]3(C)[C@H]1C2` [PELOROL], for which the EC50 was 7.7 µM. The EC50 values of the last two compounds are within 1.5-fold of each other.

For another assay, the system named is Sclerotinia sclerotiorum. Nature of the assay: Antifungal activity against Sclerotinia sclerotiorum.
The compound `CC1(C)CCC[C@]2(C)[C@H]3Cc4cc(O)ccc4O[C@]3(C)CC[C@@H]12` yielded an EC50 of 29 µM.
Compound `CC1(C)CCC[C@]2(C)[C@H]3Cc4cc(O)ccc4[C@]3(C)CC[C@@H]12` registered an EC50 of more than 150 µM.
The compound `CC1(C)CCC[C@]2(C)[C@H]3Cc4c(O)c(O)cc(C(=O)O)c4[C@]3(C)CC[C@@H]12` yielded an EC50 of 26 µM.
Regarding `C[C@H]1CC[C@H]2C(C)(C)CCC[C@]23Oc2ccc(O)cc2C[C@]13C` [AUREOL], the EC50 amounted to 19 µM. The EC50 values of the last two compounds are within 1.5-fold of each other.
`COC(=O)c1cc(O)c(O)c2c1[C@]1(C)CC[C@H]3C(C)(C)CCC[C@]3(C)[C@H]1C2` [PELOROL] registered an EC50 of 49 µM.

The test system of another assay is Rhizoctonia solani. Nature of the assay: Antifungal activity against Rhizoctonia solani at 150 uM. The class given is functional.
As to `Cc1cc(O)cc2c1[C@]1(C)CC[C@H]3C(C)(C)CCC[C@]3(C)[C@H]1C2`, the Activity is 16%.
Same read-out and setting: in the case of `CC1(C)CCC[C@]2(C)[C@H]3Cc4cc(O)cc(O)c4[C@]3(C)CC[C@@H]12` it was 68%; in that of `CC1(C)CCC[C@]2(C)[C@H]3Cc4cc(O)ccc4[C@]3(C)CC[C@@H]12`, 62%; in that of `CC1(C)CCC[C@]2(C)[C@H]3Cc4c(ccc(O)c4O)[C@]3(C)CC[C@@H]12`, 62%.
In the case of `CC1(C)CCC[C@]2(C)[C@H]3Cc4c(O)c(O)cc(C(=O)O)c4[C@]3(C)CC[C@@H]12`, the Activity came out at 73%.
Turning to `CCc1cc(O)c(O)c2c1[C@]1(C)CC[C@H]3C(C)(C)CCC[C@]3(C)[C@H]1C2`, the Activity was found to be 41%.
As for `Cc1cc2c(cc1O)C[C@@H]1[C@@]3(C)CCCC(C)(C)[C@@H]3CC[C@@]21C`, the Activity stood at 58%.
Still for that read-out and setting: in the case of `CC1(C)CCC[C@]2(C)[C@H]3Cc4c(O)c(O)cc(C=O)c4[C@]3(C)CC[C@@H]12` it was 43%.
In the case of `Cc1cc(O)c(O)c2c1[C@]1(C)CC[C@H]3C(C)(C)CCC[C@]3(C)[C@H]1C2`, the Activity stood at 50%.
The same measure, in the same setting: the result for `CC1(C)CCC[C@]2(C)[C@H]3Cc4c(cc(C=O)c(O)c4O)[C@]3(C)CC[C@@H]12` reads 3%; that for `COC(=O)c1cc(O)c(O)c2c1[C@]1(C)CC[C@H]3C(C)(C)CCC[C@]3(C)[C@H]1C2` [PELOROL], 87%.

A further assay has as its system Phytophthora capsici. Nature of the assay: Antifungal activity against Phytophthora capsici at 150 uM. The class given is functional.
In turn, `Cc1cc(O)cc2c1[C@]1(C)CC[C@H]3C(C)(C)CCC[C@]3(C)[C@H]1C2` returned an Activity of 5%.
On the same count and under the same terms, in the case of `CC1(C)CCC[C@]2(C)[C@H]3Cc4cc(O)cc(O)c4[C@]3(C)CC[C@@H]12` it was 65%; in that of `CC1(C)CCC[C@]2(C)[C@H]3Cc4cc(O)ccc4[C@]3(C)CC[C@@H]12`, 33%.
`CC1(C)CCC[C@]2(C)[C@H]3Cc4c(ccc(O)c4O)[C@]3(C)CC[C@@H]12` yielded an Activity of 60%.
Compound `CC1(C)CCC[C@]2(C)[C@H]3Cc4c(O)c(O)cc(C(=O)O)c4[C@]3(C)CC[C@@H]12` gave an Activity of 55%.
In turn, `CCc1cc(O)c(O)c2c1[C@]1(C)CC[C@H]3C(C)(C)CCC[C@]3(C)[C@H]1C2` displayed an Activity of 32%.
`Cc1cc2c(cc1O)C[C@@H]1[C@@]3(C)CCCC(C)(C)[C@@H]3CC[C@@]21C` had an Activity of 9%.
The compound `CC1(C)CCC[C@]2(C)[C@H]3Cc4c(O)c(O)cc(C=O)c4[C@]3(C)CC[C@@H]12` returned an Activity of 29%.
Compound `Cc1cc(O)c(O)c2c1[C@]1(C)CC[C@H]3C(C)(C)CCC[C@]3(C)[C@H]1C2` gave an Activity of 59%.
For the compound `CC1(C)CCC[C@]2(C)[C@H]3Cc4c(cc(C=O)c(O)c4O)[C@]3(C)CC[C@@H]12`, the Activity came to 3%.
For the compound `COC(=O)c1cc(O)c(O)c2c1[C@]1(C)CC[C@H]3C(C)(C)CCC[C@]3(C)[C@H]1C2` [PELOROL], the Activity turned out to be 40%.

Another assay has as its system Sclerotinia sclerotiorum. Nature of the assay: Antifungal activity against Sclerotinia sclerotiorum at 150 uM. It is filed as functional.
Consider `Cc1cc(O)cc2c1[C@]1(C)CC[C@H]3C(C)(C)CCC[C@]3(C)[C@H]1C2`, for which the Activity worked out at 11%.
With `CC1(C)CCC[C@]2(C)[C@H]3Cc4cc(O)cc(O)c4[C@]3(C)CC[C@@H]12`, the Activity worked out at 43%.
Same read-out and setting: the result for `CC1(C)CCC[C@]2(C)[C@H]3Cc4cc(O)ccc4[C@]3(C)CC[C@@H]12` reads 51%; that for `CC1(C)CCC[C@]2(C)[C@H]3Cc4c(ccc(O)c4O)[C@]3(C)CC[C@@H]12`, 63%; that for `CC1(C)CCC[C@]2(C)[C@H]3Cc4c(O)c(O)cc(C(=O)O)c4[C@]3(C)CC[C@@H]12`, 76%.
The same measure, in the same setting: in the case of `CCc1cc(O)c(O)c2c1[C@]1(C)CC[C@H]3C(C)(C)CCC[C@]3(C)[C@H]1C2` it was 37%; in that of `Cc1cc2c(cc1O)C[C@@H]1[C@@]3(C)CCCC(C)(C)[C@@H]3CC[C@@]21C`, 31%.
`CC1(C)CCC[C@]2(C)[C@H]3Cc4c(O)c(O)cc(C=O)c4[C@]3(C)CC[C@@H]12` displayed an Activity of 28%.
Compound `Cc1cc(O)c(O)c2c1[C@]1(C)CC[C@H]3C(C)(C)CCC[C@]3(C)[C@H]1C2` came in with an Activity of 49%.
The same measure, in the same setting: the result for `CC1(C)CCC[C@]2(C)[C@H]3Cc4c(cc(C=O)c(O)c4O)[C@]3(C)CC[C@@H]12` reads 34%; that for `COC(=O)c1cc(O)c(O)c2c1[C@]1(C)CC[C@H]3C(C)(C)CCC[C@]3(C)[C@H]1C2` [PELOROL], 75%.

Another assay has as its system Fusarium graminearum. Nature of the assay: Antifungal activity against Fusarium graminearum at 150 uM. The class given is functional.
`Cc1cc(O)cc2c1[C@]1(C)CC[C@H]3C(C)(C)CCC[C@]3(C)[C@H]1C2` gave an Activity of 11%.
Compound `CC1(C)CCC[C@]2(C)[C@H]3Cc4cc(O)cc(O)c4[C@]3(C)CC[C@@H]12` had an Activity of 60%.
As for `CC1(C)CCC[C@]2(C)[C@H]3Cc4cc(O)ccc4[C@]3(C)CC[C@@H]12`, the Activity is reported as 37%.
In turn, `CC1(C)CCC[C@]2(C)[C@H]3Cc4c(ccc(O)c4O)[C@]3(C)CC[C@@H]12` returned an Activity of 71%.
On the same count and under the same terms, the result for `CC1(C)CCC[C@]2(C)[C@H]3Cc4c(O)c(O)cc(C(=O)O)c4[C@]3(C)CC[C@@H]12` reads 51%.
In turn, `CCc1cc(O)c(O)c2c1[C@]1(C)CC[C@H]3C(C)(C)CCC[C@]3(C)[C@H]1C2` returned an Activity of 53%.
Same read-out and setting: the result for `Cc1cc2c(cc1O)C[C@@H]1[C@@]3(C)CCCC(C)(C)[C@@H]3CC[C@@]21C` reads 32%.
`CC1(C)CCC[C@]2(C)[C@H]3Cc4c(O)c(O)cc(C=O)c4[C@]3(C)CC[C@@H]12`: the Activity is 55%.
The compound `Cc1cc(O)c(O)c2c1[C@]1(C)CC[C@H]3C(C)(C)CCC[C@]3(C)[C@H]1C2` gave an Activity of 42%.
`CC1(C)CCC[C@]2(C)[C@H]3Cc4c(cc(C=O)c(O)c4O)[C@]3(C)CC[C@@H]12`: the Activity amounted to 37%.
Still for that read-out and setting: in the case of `COC(=O)c1cc(O)c(O)c2c1[C@]1(C)CC[C@H]3C(C)(C)CCC[C@]3(C)[C@H]1C2` [PELOROL] it was 62%.
